Measurements: patent US5288709A, “Erythromycin derivatives” (priority 1991, dated 1994)
Converted amounts (≈) assume the structure as drawn. Read-outs that look alike come from different tables or passages of the source.

Experiments:
Acinetobacter SP CMX 669 = test: In-vitro antimicrobial activity primary screen (agar dilution MIC); type: cell-based; conditions: Acinetobacter, SPCMX669, 24 h
In short: (§1)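 Steps: prepare 12 BHI agar plates with serial aqueous dilutions; inoculate with 1:100 dilutions (1:10 for Streptococcus and other slow growers); incubate 35-37° C, 20-24 h; score MIC as lowest concentration with no growth, slight haze or isolated colonies.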

[1] = tested on: Enterobacter aerogenes ATCC 13048; test: as above; type: cell-based; conditions: Klebsiella aerogenes, ATCC13048; Enterobacter aerogenes ATCC 13048; BHI agar, 20-24 h; read-out: MIC
In short: as §1

[2] = tested on: Enterococcus faecium ATCC 8043; test: as above; type: cell-based; conditions: ATCC8043; Enterococcus faecium ATCC 8043; BHI agar, 20-24 h; read-out: MIC
In short: as §1

Escherichia coli DC-2 = test: as above; type: cell-based; conditions: DC2; Escherichia coli DC-2; BHI agar, 20-24 h; read-out: MIC
In short: as §1

Escherichia coli H560 = test: as above; type: cell-based; conditions: Escherichia coli H560; BHI agar, 20-24 h; read-out: MIC
In short: as §1

Escherichia coli JUHL = test: as above; type: cell-based; conditions: Escherichia coli JUHL; BHI agar, 20-24 h; read-out: MIC
In short: as §1

Escherichia coli SS = test: as above; type: cell-based; conditions: BHI agar, 20-24 h, read-out: MIC
In short: as §1

[3] = tested on: Klebsiella pneumoniae ATCC 8045; test: as above; type: cell-based
In short: as §1

[4] = tested on: Micrococcus luteus ATCC 4698; test: as above; type: cell-based; conditions: 20-24 h
In short: as §1

[5] = tested on: Micrococcus luteus ATCC 9341; test: as above; type: cell-based; conditions: 20-24 h
In short: as §1

[6] = tested on: Providencia stuartii CMX 640; test: as above; type: cell-based
In short: as §1

[7] = tested on: Pseudomonas aeruginosa A5007; test: as above; type: cell-based
In short: as §1

[8] = tested on: Pseudomonas aeruginosa BMH10; test: as above; type: cell-based; conditions: Pseudomonas aeruginosa, BMH10, 24 h, BHI agar, 20-24 h
In short: as §1

[9] = tested on: Pseudomonas aeruginosa K799/61; test: as above; type: cell-based; conditions: Pseudomonas aeruginosa K799/61; BHI agar, 20-24 h; read-out: MIC
In short: as §1

[10] = tested on: Pseudomonas aeruginosa K799/WT; test: as above; type: cell-based; conditions: Pseudomonas aeruginosa K799/WT, BHI agar, 20-24 h
In short: as §1

Pseudomonas cepacia 2961 = test: as above; type: cell-based; conditions: BHI agar, 20-24 h
In short: as §1

[11] = tested on: Staphylococcus aureus 45 RAR2; test: as above; type: cell-based; conditions: Staphylococcus aureus, 45RAR2, 24 h, BHI agar, 20-24 h
In short: as §1

Staphylococcus aureus 45 = test: as above; type: cell-based; conditions: BHI agar, 20-24 h, read-out: MIC
In short: as §1

[12] = tested on: Staphylococcus aureus 642A; test: as above; type: cell-based; conditions: BHI agar, 20-24 h, read-out: MIC
In short: as §1

[13] = tested on: Staphylococcus aureus A5177; test: as above; type: cell-based; conditions: Staphylococcus aureus, A5177, 24 h
In short: as §1

[14] = tested on: Staphylococcus aureus ATCC 6538P; test: as above; type: cell-based; conditions: Staphylococcus aureus, ATCC6538P, 24 h, BHI agar, 20-24 h
In short: as §1

[15] = tested on: Staphylococcus aureus NCTC 10649; test: as above; type: cell-based; conditions: NCTC10649, BHI agar, 20-24 h, read-out: MIC
In short: as §1

[16] = tested on: Staphylococcus epidermidis 3519; test: as above; type: cell-based; conditions: BHI agar, 20-24 h, read-out: MIC
In short: as §1

[17] = tested on: Streptococcus agalactiae CMX 508; test: as above; type: cell-based; conditions: CMX508, BHI agar, 20-24 h, read-out: MIC
In short: as §1

[18] = tested on: Streptococcus bovis A5169; test: as above; type: cell-based; conditions: Streptococcus equinus, BHI agar, 20-24 h
In short: as §1

[19] = tested on: Streptococcus pyrogenes 2548 INDUC; test: as above; type: cell-based; conditions: BHI agar, 20-24 h, read-out: MIC
In short: as §1

[20] = tested on: Streptococcus pyrogenes EES61; test: as above; type: cell-based; conditions: BHI agar, 20-24 h, read-out: MIC
In short: as §1

[21] = tested on: Staphylococcus aureus CMX 553; test: as above; type: cell-based; conditions: Staphylococcus aureus, CMX553, 24 h, BHI agar, 20-24 h, read-out: MIC
In short: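 Agar dilution in Brain Heart Infusion agar with twelve successive compound dilutions; plates inoculated with 1:100 diluted cultures by replicator and incubated 20-24 h at 35-37 °C. MIC is the lowest concentration giving no growth, slight haze or sparse isolated colonies versus compound-free control; erythromycin A plate run as reference.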

[22] = Pharmacokinetic evaluation in dogs after a 10 mg/kg dose; conditions: dog, plasma; for half-life: t1/2 (biological half life); for bioavailability: % ABS (percent absorbance), from AUC (absolute bioavailability); for Cmax: Cmax (maximum concentration in blood); for Tmax: Tmax (time to achieve maximum concentration in blood)
Experimental: Selected compounds of the present invention were formulated as solutions in dilute lactobionic acid at a concentration of 10 or 20 mg/ml. Groups of two or three dogs were given a 10 mg macrolide/kg intravenous bolus or oral dose (by gavage). Plasma samples, obtained at selected time points from 15 minutes to 32 hours after dosing, were assayed using reverse phase HPLC with electrochemical detection (parent drug) and microbiological assay (total microbiological activity). Plasma concentration time curves were subjected to multi exponential curve fitting to determine terminal elimination half life values. Area under the curve (AUC) values, calculated by the trapezoidal method, were used to calculate absolute bioavailability.

[23] = po, oral 10 mg/kg, HPLC (parent drug)
[24] = po, oral 10 mg/kg, microbiological assay

Structure (SMILES)	MIC (Acinetobacter SP CMX 669)	MIC [1]	MIC [2]	MIC (Escherichia coli DC-2)	MIC (Escherichia coli H560)	MIC (Escherichia coli JUHL)	MIC (Escherichia coli SS)	MIC [8]	MIC [9]	MIC [11]	MIC (Staphylococcus aureus 45)	MIC [12]	MIC [14]	MIC [15]	MIC [16]	MIC [17]	MIC [19]	MIC [20]	MIC [21]	further results
CC[C@H]1OC(=O)[C@H](C)[C@@H](O[C@H]2C[C@@](C)(OC)[C@H](N)[C@H](C)O2)[C@H](C)[C@@H](O[C@@H]2O[C@H](C)C[C@H](N(C)C)[C@H]2O)[C@](C)(O)C[C@@H](C)[C@@H]2O[C@@]1(C)[C@@H](N)[C@H]2C [Example 20, (4"R,9S,11S)-4",11-Diamino-9-deoxo-4",11,12-trideoxy-9,12-epoxyerythromycinA]	1.56 µg/mL (≈ 2.18 µM)	12.5 µg/mL (≈ 17.5 µM)	0.05 µg/mL (≈ 0.0698 µM)	3.1 µg/mL (≈ 4.33 µM)	1.56 µg/mL (≈ 2.18 µM)	3.1 µg/mL (≈ 4.33 µM)	0.05 µg/mL (≈ 0.0698 µM)	25 µg/mL (≈ 34.9 µM)	0.78 µg/mL (≈ 1.09 µM)	0.39 µg/mL (≈ 0.545 µM)	0.2 µg/mL (≈ 0.279 µM)	0.39 µg/mL (≈ 0.545 µM)	0.2 µg/mL (≈ 0.279 µM)	0.39 µg/mL (≈ 0.545 µM)	0.2 µg/mL (≈ 0.279 µM)	0.02 µg/mL (≈ 0.0279 µM)	0.78 µg/mL (≈ 1.09 µM)	≤ 0.005 µg/mL	0.2 µg/mL (≈ 0.279 µM)	MIC ([3]; Klebsiella pneumoniae, ATCC8045, 24 h): 1.56 µg/mL (≈ 2.18 µM); MIC ([4]; Micrococcus luteus, ATCC4698, 24 h, BHI agar): 0.1 µg/mL (≈ 0.14 µM); MIC ([5]; Micrococcus luteus, ATCC9341, 24 h, BHI agar): 0.02 µg/mL (≈ 0.0279 µM); MIC ([6]; Providencia stuartii, CMX640, 24 h): > 100 µg/mL; MIC ([7]; Pseudomonas aeruginosa, A5007, 24 h): > 100 µg/mL; MIC ([10]; Pseudomonas aeruginosa, K799/WT, 24 h): 50 µg/mL (≈ 69.8 µM); MIC (Pseudomonas cepacia 2961; Burkholderia cepacia, 2961, 24 h): > 100 µg/mL; MIC ([13]; Staphylococcus aureus A5177, BHI agar, 20-24 h): 0.78 µg/mL (≈ 1.09 µM); MIC ([18]; A5169, 24 h): ≤ 0.005 µg/mL
CC[C@H]1OC(=O)[C@H](C)[C@@H](O[C@H]2C[C@@](C)(OC)[C@@H](N)[C@H](C)O2)[C@H](C)[C@@H](O[C@@H]2O[C@H](C)C[C@H](N(C)C)[C@H]2O)[C@](C)(O)C[C@@H](C)[C@@H]2O[C@@]1(C)[C@@H](N)[C@H]2C [Example 22, (4"S,9S,11S)-4",11-Diamino-9-deoxo-4",11,12-trideoxy-9,12-epoxyerythromycinA]	0.39 µg/mL (≈ 0.545 µM)	6.2 µg/mL (≈ 8.66 µM)	0.05 µg/mL (≈ 0.0698 µM)	3.1 µg/mL (≈ 4.33 µM)	0.78 µg/mL (≈ 1.09 µM)	1.56 µg/mL (≈ 2.18 µM)	0.1 µg/mL (≈ 0.14 µM)	12.5 µg/mL (≈ 17.5 µM)	0.39 µg/mL (≈ 0.545 µM)	0.2 µg/mL (≈ 0.279 µM)	0.1 µg/mL (≈ 0.14 µM)	0.2 µg/mL (≈ 0.279 µM)	0.2 µg/mL (≈ 0.279 µM)	0.2 µg/mL (≈ 0.279 µM)	0.2 µg/mL (≈ 0.279 µM)	0.01 µg/mL (≈ 0.014 µM)	1.56 µg/mL (≈ 2.18 µM)	0.01 µg/mL (≈ 0.014 µM)	0.2 µg/mL (≈ 0.279 µM)	MIC ([3]; ATCC8045, Klebsiella pneumoniae ATCC 8045, BHI agar, 20-24 h, read-out: MIC): 1.56 µg/mL (≈ 2.18 µM); MIC ([4]; ATCC4698, BHI agar, read-out: MIC): 0.05 µg/mL (≈ 0.0698 µM); MIC ([5]; ATCC9341, BHI agar, read-out: MIC): ≤ 0.005 µg/mL; MIC ([6]; CMX640, Providencia stuartii CMX 640, BHI agar, 20-24 h, read-out: MIC): > 100 µg/mL; MIC ([7]; Pseudomonas aeruginosa A5007, BHI agar, 20-24 h, read-out: MIC): > 100 µg/mL; MIC ([10]; read-out: MIC): 100 µg/mL (≈ 140 µM); MIC (Pseudomonas cepacia 2961; Burkholderia cepacia, read-out: MIC): > 100 µg/mL; MIC [13]: 1.56 µg/mL (≈ 2.18 µM); MIC ([18]; read-out: MIC): 0.01 µg/mL (≈ 0.014 µM); half-life ([22]; iv, IV 10 mg/kg, HPLC (parent drug)): 9.3 h; half-life ([22]; iv, IV 10 mg/kg, microbiological assay): 10.2 h; bioavailability [22, 23]: 43%; bioavailability [22, 24]: 57%; Cmax [22, 23]: 3200 ng/mL; Cmax [22, 24]: 3500 ng/mL; Tmax [22, 23]: 0.5 h; Tmax [22, 24]: 0.6 h; half-life [22, 23]: 11.5 h; half-life [22, 24]: 9.8 h
